The subject of the test is Eimeria. The experiment in a line: In vitro ability to disrupt infectious activity of Eimeria sporozoites expressed as potency relative to frenolicin (B=1). In kind it is functional.

`O=C1CC2CCC3=C(C(=O)c4cccc(O)c4C3=O)C2O1` (stereo not drawn) gave a Relative potency of 0.033.

`O=C1C[C@H]2CCC3=C(C(=O)c4ccccc4C3=O)[C@H]2O1` gave a Relative potency of 0.167. Molecule `CC(=O)OC1CCCC2=C1C(=O)c1ccccc1C2=O` (stereo not drawn) came in with a Relative potency of 0.001.

These data come from ChEMBL document CHEMBL1131551, “Carbocyclic frenolicin analogues: novel anticoccidial agents” (1998).
